The record followed here is the NIST ThermoML archive (doi:10.1016/j.jct.2004.05.006).

Numbers after ± are expanded uncertainties.

For data set [1] the following is noted: 298.15 K; 101.33 kPa; Liquid.
A short description of data set [2]: excess molar enthalpy (molar enthalpy of mixing); xn = mol fraction of the nth substance listed. The conditions noted are these: 298.15 K, 101.3 kPa, Liquid, Flow calorimetry.

As usually defined, the mass density is mass per unit of volume. For the molecule `COC(C)(C)C` [2-methoxy-2-methylpropane], the mass density in data set [1] worked out at 735.69 ± 0.73 kg/m3.
On the same count and under the same terms, to `CCCC(C)C` [2-methylpentane] belongs 649.78 ± 0.94 kg/m3.
As to `CCCC(C)C` [2-methylpentane] + COC(C)(C)C, the excess molar enthalpy in data set [2] (x2 = 0.0532) came to 0.00897 ± 0.000335 kcal/mol; in data set [2] (x2 = 0.1063) it was 0.0214 ± 0.000454 kcal/mol; in data set [2] (x2 = 0.1589) it was 0.0336 ± 0.000574 kcal/mol; in data set [2] (x2 = 0.2113), 0.0437 ± 0.000669 kcal/mol; in data set [2] (x2 = 0.2633) it was 0.0523 ± 0.000765 kcal/mol; in data set [2] (x2 = 0.315) it was 0.0597 ± 0.000837 kcal/mol. Besides, the excess molar enthalpy came to 0.065 ± 0.000884 kcal/mol in data set [2] (x2 = 0.3658); 0.0691 ± 0.000932 kcal/mol in data set [2] (x2 = 0.4165); 0.0717 ± 0.000956 kcal/mol in data set [2] (x2 = 0.4667); 0.0725 ± 0.000956 kcal/mol in data set [2] (x2 = 0.5174); 0.0711 ± 0.000956 kcal/mol in data set [2] (x2 = 0.5673); 0.0696 ± 0.000932 kcal/mol in data set [2] (x2 = 0.6165). Also, the excess molar enthalpy amounted to 0.0659 ± 0.000908 kcal/mol in data set [2] (x2 = 0.6652); 0.0608 ± 0.000837 kcal/mol in data set [2] (x2 = 0.7143); 0.0542 ± 0.000789 kcal/mol in data set [2] (x2 = 0.7628); 0.0462 ± 0.000693 kcal/mol in data set [2] (x2 = 0.81); 0.0376 ± 0.000621 kcal/mol in data set [2] (x2 = 0.8548); 0.0257 ± 0.000502 kcal/mol in data set [2] (x2 = 0.906). The excess molar enthalpy in data set [2] (x2 = 0.9531) was found to be 0.0136 ± 0.000382 kcal/mol.
In the case of `CCCCCCCCCC` [decane], in data set [1], the mass density turned out to be 726.31 ± 0.81 kg/m3.
Regarding `CCCCCCCCCCCC` [dodecane], in data set [1], the mass density is given as 745.38 ± 0.78 kg/m3.
